Here are results for 6 substances from patent US20120177701A1, “COMPOSITIONS COMPRISING IMMUNOSTIMULATORY NUCLEIC ACIDS AND RELATED METHODS” (priority 2010, published 2012).

The test system of one series is murine splenocytes. Briefly: Immune cell activation (CD69 expression, FACS) in murine splenocytes. It counts as cell-based, mouse. Conditions: 20 hours; for activation of immune cell populations (CD69 expression) / immune cell activation compared with R848 and control oligonucleotide: 200 nM DOTAP-complexed; for immune cell activation compared with R848 and control oligonucleotide: R848 1 μM; for NKT cell activation (CD69) / T cell activation (CD69) / granulocyte activation (CD69): compared with R848 1 μM. Here is the method: In addition, upon removal of the supernatant at 20 hours post-incubation, the mouse cells were stained for the following cell markers: GR1, F4/80, CD11c, CD220, CD3, Ly49b, and CD69, and analyzed by FACS. Different immune cell populations were distinguished as follows: macrophages (F4/80^+/GR1^−); plasmacytoid dendritic cells or pDC (CD11c^+/CD220^+); B cells (CD220^+/CD11c^−); NK (CD3^−/Ly49b^+); myeloid DC or mDC ([…]); granulocytes (eosinophils) (GR1^+high/F4/80^−); T cells (CD3^+); and NKT cells (CD3^+/Ly49b^+). All immune cell populations were quantified by the expression of CD69 (am early activation marker).

Another series concerns the target T1, human TLR8 (Homo sapiens, UniProt Q9NR97).
T1 construct: host or cells: HEK293 (HEK-Blue hTLR8) with NF-kB-inducible SEAP reporter
T1 sequence (Q9NR97 27-1041): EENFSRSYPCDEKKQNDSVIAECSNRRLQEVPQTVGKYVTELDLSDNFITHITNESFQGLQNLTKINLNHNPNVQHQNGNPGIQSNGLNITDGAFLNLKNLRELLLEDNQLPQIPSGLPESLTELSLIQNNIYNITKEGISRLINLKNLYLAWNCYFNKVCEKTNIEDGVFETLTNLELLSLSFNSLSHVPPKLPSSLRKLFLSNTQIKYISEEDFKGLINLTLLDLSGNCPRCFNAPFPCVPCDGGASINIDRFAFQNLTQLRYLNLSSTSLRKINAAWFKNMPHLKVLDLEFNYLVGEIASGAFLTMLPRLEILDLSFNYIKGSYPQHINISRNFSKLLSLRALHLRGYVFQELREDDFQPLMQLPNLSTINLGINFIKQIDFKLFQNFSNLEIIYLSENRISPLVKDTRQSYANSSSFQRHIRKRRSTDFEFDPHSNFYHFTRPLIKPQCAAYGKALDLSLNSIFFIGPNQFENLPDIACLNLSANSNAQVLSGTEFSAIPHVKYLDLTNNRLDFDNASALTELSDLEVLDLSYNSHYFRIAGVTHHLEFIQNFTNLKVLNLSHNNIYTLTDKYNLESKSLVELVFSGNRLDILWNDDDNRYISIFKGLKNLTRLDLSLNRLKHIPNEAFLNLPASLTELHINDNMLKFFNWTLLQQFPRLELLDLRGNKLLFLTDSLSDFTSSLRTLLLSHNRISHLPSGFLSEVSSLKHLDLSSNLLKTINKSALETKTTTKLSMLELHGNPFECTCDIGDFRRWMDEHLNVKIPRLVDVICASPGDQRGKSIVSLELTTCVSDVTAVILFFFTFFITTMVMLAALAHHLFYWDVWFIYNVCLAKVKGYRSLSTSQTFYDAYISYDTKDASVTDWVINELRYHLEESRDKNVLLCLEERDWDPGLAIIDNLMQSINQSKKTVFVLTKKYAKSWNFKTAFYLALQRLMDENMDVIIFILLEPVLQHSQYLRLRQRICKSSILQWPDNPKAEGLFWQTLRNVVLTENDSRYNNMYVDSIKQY
Briefly: HEK-Blue hTLR8 NF-kB-inducible SEAP reporter assay (TLR8 activation). It counts as cell-based.

The subject of another series is J774 murine macrophages. Briefly: TNF-α induction in mouse macrophage cell line J774. It counts as cell-based. Here is the method: Induction of TNF-α by macrophages is a hallmark of human TLR8 activation (Forsbach et al., 2008, J. Immunol., 180:3729-38; Ghosh et al., 2007, Int. Immunopharmacol., 7:1111-21; Gorden et al., 2005, J. Immunol., 174:1259-68). […] In the following experiment mouse macrophage cell line, J774, has been transfected by test ribonucleotides as described above for HEK-Blue™ hTLR8 cells (with the exception that 2-10×10^4 cells/well were used) and TNF-α was measured in culture supernatants at 16-20 hours after transfection.

For the substance “5′-AGAUGUUA--UUGUUU-AAUAUUU-3′ (AGAUGUUAUUGUUUAAUAUUU; phosphorothioate backbone, further chemistry not given here) [SL-0014, phosphorothioated ribonucleotide from SL-0001; dashes signify deleted nucleotides]”, in the series on murine splenocytes, the “activation of immune cell populations (CD69 expression)” value (“activation of immune cell populations” for short) is listed as “induced activation in most of the tested immune cell populations”; the “immune cell activation compared with R848 and control oligonucleotide” value was “at least comparable to that generated by treatment with 1 μM of R848, and usually exceeded the effects exhibited by the control oligonucleotide R-0006”. In the series with murine splenocytes (200 nM), the “NKT cell activation (CD69)” value is reported as “exceeded the activation observed for R848”, the “T cell activation (CD69)” value is listed as “exceeded the activation observed for R848” and the “granulocyte activation (CD69)” value was “exceeded the activation observed for R848”. In addition, in the series on murine splenocytes (200 nM, compared with R-0006), the “macrophage activation (CD69)” value was “especially higher than the activation observed for R-0006”.
On to “5′-AUUUAUUUUUAAAUUUUUGUGU-3′ (phosphorothioate, further chemistry not given here) [SL-0023, phosphorothioated ribonucleotide completely contained within SL-0005]”, for which, in the series with human TLR8, the “TLR8 activation (fold increase of SEAP induction over the background), described in words” value is “even stronger activity than the parental SL-0005 sequence”.
For “5′-CUGUGUGAACGAUAGUGCAG-3′ (phosphorothioate, further chemistry not given here) [SL-0019, phosphorothioated ribonucleotide derived from SL-0004]”, the “TNF-α induction, described in words” value with J774 murine macrophages is listed as “weaker than the level of induction observed for the other oligonucleotides”. In addition, in the series with human TLR8, the “TLR8 activation (fold increase of SEAP induction over the background), described in words” value was “markedly weaker”.
As to “5′-GUUUAUCUGUGUG----------CAGUUUAAAC-3′ (GUUUAUCUGUGUGCAGUUUAAAC; phosphorothioate, further chemistry not given here) [SL-0020, dashes signify deleted nucleotides]”, in the series on J774 murine macrophages, the “TNF-α induction, described in words” value was “most potent” and the “concentration at which TNF-α induction reached plateau” value came to 300 nM. The “TLR8 activation (fold increase of SEAP induction over the background), described in words” value with human TLR8 is on record as “activity similar or exceeding that of SL-0004”.
Take “5′-UUAUUUUGUUUUUAAUAUUU-3′ (phosphorothioate backbone, further chemistry not given here) [SL-0012]”: in the series with murine splenocytes, the “activation of immune cell populations” value was “induced activation in most of the tested immune cell populations”; the “immune cell activation compared with R848 and control oligonucleotide” value was “at least comparable to that generated by treatment with 1 μM of R848, and usually exceeded the effects exhibited by the control oligonucleotide R-0006”. For the same substance, in the series with murine splenocytes (200 nM), the “NKT cell activation (CD69)” value was “exceeded the activation observed for R848”, the “T cell activation (CD69)” value was “exceeded the activation observed for R848” and the “granulocyte activation (CD69)” value was “exceeded the activation observed for R848”. Further, the “macrophage activation (CD69)” value in the series on murine splenocytes (200 nM, compared with R-0006) was “especially higher than the activation observed for R-0006”.
Turning to “5′-UUAUUUUGUUUUUAAUAUUUC-3′ (phosphorothioate backbone, further chemistry not given here) [SL-0011]”, in the series on murine splenocytes, the “activation of immune cell populations” value is “induced activation in most of the tested immune cell populations”; the “immune cell activation compared with R848 and control oligonucleotide” value is “at least comparable to that generated by treatment with 1 μM of R848, and usually exceeded the effects exhibited by the control oligonucleotide R-0006”. In addition, in the series on murine splenocytes (200 nM), the “NKT cell activation (CD69)” value was “exceeded the activation observed for R848”, the “T cell activation (CD69)” value is recorded as “exceeded the activation observed for R848” and the “granulocyte activation (CD69)” value is “exceeded the activation observed for R848”. Also, in the series on murine splenocytes (200 nM, compared with R-0006), the “B-cell activation (CD69)” value was “especially higher than the activation observed for R-0006” and the “macrophage activation (CD69)” value is “especially higher than the activation observed for R-0006”.
